Source: patent US12527774B2, “Estrogen-related receptor alpha modulators” (LEAD PHARMA HOLDING B.V., priority 2019, dated 2026)

Experiments:
[1] = target: ERRα ligand binding domain (ERRα-LBD) (Homo sapiens (Human), UniProt P11474); assay: ERRα AlphaScreen Assay; format: biochemical; details: disruption of binding of ERRα-LBD protein to biotin-PGC1α-3 co-activator peptide; for IC50: read-out: mean pIC50 (converted)
Method in brief: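 His-SUMO-tagged ERRα-LBD from E. coli (0.81 nM) preincubated 1 h at room temperature with compound, streptavidin donor and Ni-chelate acceptor beads (10 μg/mL each), then 2 h with 15 nM biotin-PGC1α-3 peptide (aa 202–220). Buffer: 50 mM Tris-HCl pH 7.5, 100 mM NaCl, 5 mM TCEP, 1% DMSO. Four-parameter IC50; mean pIC50 of replicate values.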

full length ERRα = full length ERRα (Homo sapiens (Human), UniProt P11474); assay: Full Length ERRα Reporter Gene Assay; format: cell-based; details: SK-BR-3 cells, ERRα-RE luciferase reporter, overnight incubation; read-out: mean pIC50 (converted)
Chain of full length ERRα (P11474 whole entry): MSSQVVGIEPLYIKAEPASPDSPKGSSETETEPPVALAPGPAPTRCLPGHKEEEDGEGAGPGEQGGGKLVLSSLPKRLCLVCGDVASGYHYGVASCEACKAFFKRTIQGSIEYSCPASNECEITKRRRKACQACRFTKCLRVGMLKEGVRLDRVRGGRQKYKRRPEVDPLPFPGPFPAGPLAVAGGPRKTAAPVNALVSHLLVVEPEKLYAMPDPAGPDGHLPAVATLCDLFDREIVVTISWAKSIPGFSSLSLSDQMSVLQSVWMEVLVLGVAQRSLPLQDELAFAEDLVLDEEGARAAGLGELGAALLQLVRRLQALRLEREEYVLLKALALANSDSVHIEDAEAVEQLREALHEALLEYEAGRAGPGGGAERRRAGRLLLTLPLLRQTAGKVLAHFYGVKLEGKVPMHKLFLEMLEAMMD
Description: Full Length ERRα Reporter Gene Assay
A method was established to quantitatively screen the potency of compounds with inverse agonistic activity on the nuclear receptor ERRα of the human species. The assay allows intra-cellular screening of ERRα inverse agonists in SK-BR-3 cells using an over-expression construct coding full length ERRα and a reporter construct containing an ERRα Response Element (RE) and a luciferase gene for read out. The activity is expressed in log IC50 values and can be used to determine SAR of compound families or to de-select compounds.
In this assay, reporter cells are obtained by transient co-transfection of two constructs in SK-BR-3 cells using standard transfection techniques. The first construct contains a response element of the nuclear receptor ERRα (Plasmid pLP2175, Reporter construct ERRα-RE/luc2P, cloned variant of ERRα_v2_synthRE, Switchgear Genomics, Catalog Number S900089). This sequence drives the transcription of the luciferase reporter gene in response to binding of an ERRα protein encoded by the second construct (Plasmid pLP2124: full length ERRα expression construct using pcDNA3.1/Hygro(+) as background, Invitrogen Catalog Number V87020).
The day after transfection, cells were plated into 96 well plates, test compound was added and the plates were incubated overnight. Subsequently, the firefly luciferase activity was quantified using luciferase detection reagent and luminescence readout.
Detailed Assay Description
Transfection is performed on pre-seeded SK-BR-3 cells in a T175 flask. One transfected T175 flask is sufficient for seeding 3 to 4 MW96 plates the next day, depending on the confluency of the transfected cells.
Two different media are used in this protocol for cell treatment: 1) Culture medium, i.e. McCoy's 5a with phenol red (BioWhittaker Supplier Number 12-688F), 10% FBS and 1× Penstrep.; and, 2) Assay medium, i.e. McCoy's 5a Medium phenol red free (HyClone Product Code SH30270.01) with 2% Charcoal Stripped FBS and 1× Penstrep. Compound dilutions are prepared in assay medium.
Cells are seeded at least 2 days in advance to allow the cells to adhere well to flask before transfection. Cells should be 50-80% confluent at the day of transfection.
SKBR3 cells were transfected with the transcriptional reporter construct pLP2175 and the ERRα expression construct pLP2124 (as described above).
68 μL of Lipofectamine LTX transfection reagent (Invitrogen Catalog Number 15338-100) was added dropwise to 8.9 ml Opti-MEM I Reduced Serum Medium (Gibco Catalog Number 51985-026) and incubated at room temperature for 5 to 20 minutes. 8.9 ml of this reagent mixture was added to 22 μg pLP2175+22 μg pLP2124 (ratio 1:1 and total volume 10 ml), and incubated at room temperature for 25 minutes.
10 minutes before adding the transfection mix to SKBR3 cells in a T175 flask, the culture medium was refreshed with 20 mL culture medium. Subsequently, the 10 mL DNA-Opti-MEM-Lipofectamine mixture was gently added to the cells, followed by overnight (16-24 hours) incubation at 37° C. and 5% CO2.
To harvest SKBR3 cells from a T175 flask, first the medium was removed. Subsequently, cells were washed with Phosphate Buffered Saline (PBS) (Lonza), after which the PBS was removed. To dissociate the cells, 2 ml of TrypLE Express (Invitrogen) was added to the flask, followed by incubation at 37° C. for 5 minutes. The flask was tapped until cells were detached from the bottom. Cells were collected in 8 mL of culture medium (McCoy's 5α, 10% FBS, penstrep), to achieve a single cell suspension. After cell count, cells were spun down for 5 minutes at 300 g. Next cell pellets were re-suspended to 25000 cells/80 μl assay medium (McCoy's 5a phenol red free, 2% charcoal stripped FBS, penstrep).
For compound screening, the cells were harvested (as described above). 80 μL of cell suspension (25,000 cells) was plated per well into a white, flat bottom, tissue culture treated, 96 well screening plates (Greiner). […]

Chain of ERRα ligand binding domain (ERRα-LBD) (P11474 193-421): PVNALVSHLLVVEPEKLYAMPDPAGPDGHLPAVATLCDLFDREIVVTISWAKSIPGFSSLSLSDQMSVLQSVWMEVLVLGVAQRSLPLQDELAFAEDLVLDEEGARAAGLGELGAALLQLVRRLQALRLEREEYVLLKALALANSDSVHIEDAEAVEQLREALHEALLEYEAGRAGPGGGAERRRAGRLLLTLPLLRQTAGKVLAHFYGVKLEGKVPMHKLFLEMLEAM

Compound	mean pIC50 [1]	IC50 (full length ERRα) [µM]	IC50 [1] [µM]
COc1cc(C2CC(=O)Nc3n[nH]cc32)ccc1OCc1cccc(OC)c1C(F)(F)F (stereo not shown) [Example 36, 4-(3-methoxy-4-{[3-methoxy-2-(trifluoromethyl)phenyl]methoxy}phenyl)-2H,4H,5H,6H,7H-pyrazolo[3,4-b]pyridin-6-one]	≥ 8	≤ 0.316	–
COc1cc(C2CC(=O)Nc3n[nH]cc32)ccc1OCc1ccccc1C(C)(C)C (stereo not shown) [Example 40, 4-{4-[(2-tert-butylphenyl)methoxy]-3-methoxyphenyl}-2H,4H,5H,6H,7H-pyrazolo[3,4-b]pyridin-6-one]	≥ 8	≤ 0.316	–
CCOc1cc(C2CC(=O)Nc3n[nH]cc32)ccc1OCc1ccccc1C(F)(F)F (stereo not shown) [Example 62, 4-(3-ethoxy-4-{[2-(trifluoromethyl)phenyl]methoxy}phenyl)-2H,4H,5H,6H, 7H-pyrazolo[3,4-b]pyridin-6-one]	≥ 8	≤ 0.316	–
O=C1CC(c2ccc(OCc3ccccc3C(F)(F)F)c(OC(F)F)c2)c2c[nH]nc2N1 (stereo not shown) [Example 68, 4-[3-(difluoromethoxy)-4-{[2-(trifluoromethyl)phenyl]methoxy}phenyl]-2H,4H,5H,6H, 7H-pyrazolo[3,4-b]pyridin-6-one]	≥ 8	≤ 0.316	–
COc1cc(C2CC(=O)Nc3[nH]cnc32)ccc1OCc1ccccc1C(F)(F)F (stereo not shown) [Example 89, 7-(3-methoxy-4-{[2-(trifluoromethyl)phenyl]methoxy}phenyl)-3H,4H,5H,6H, 7H-imidazo[4,5-b]pyridin-5-one]	≥ 8	≤ 0.316	–
COc1ccc(COc2ccc(C3CC(=O)Nc4[nH]nnc43)cc2OC)c(C(F)(F)F)c1 (stereo not shown) [Example 91, 7-(3-methoxy-4-{[4-methoxy-2-(trifluoromethyl)phenyl]methoxy}phenyl)-3H,4H,5H,6H,7H-[1,2,3]triazolo[4,5-b]pyridin-5-one]	≥ 8	≤ 0.316	–
COc1cc(C2CC(=O)Nc3n[nH]nc32)ccc1OCc1ccc(C(C)=O)cc1C(F)(F)F (stereo not shown) [Example 93, 7-(4-{[4-acetyl-2-(trifluoromethyl)phenyl]methoxy}-3-methoxyphenyl)-2H,4H,5H,6H,7H-[1,2,3]triazolo[4,5-b]pyridin-5-one]	–	≤ 0.316	0.01 to 0.1
COc1cc(C2CC(=O)Nc3n[nH]cc32)ccc1COc1ccc(Br)cc1C(F)(F)F (stereo not shown) [Example 96, 4-(4-{[4-bromo-2-(trifluoromethyl)phenoxy]methyl}-3-methoxyphenyl)-2H,4H,5H,6H, 7H-pyrazolo[3,4-b]pyridin-6-one]	–	≤ 0.316	≤ 0.01
O=C1CC(c2ccc(COc3ccc(Br)cc3C(F)(F)F)c(OC(F)(F)F)c2)c2c[nH]nc2N1 (stereo not shown) [Example 106, 4-(4-{[4-bromo-2-(trifluoromethyl)phenoxy]methyl}-3-(trifluoromethoxy)phenyl)-2H,4H,5H,6H,7H-pyrazolo[3,4-b]pyridin-6-one]	–	≤ 0.316	0.01 to 0.1
O=C1CC(c2ccc(COc3ccccc3S(F)(F)(F)(F)F)c(OC(F)(F)F)c2)c2c[nH]nc2N1 (stereo not shown) [Example 107, 4-(4-{[2-(pentafluoro-λ^6-sulfanyl)phenoxy]methyl}-3-(trifluoromethoxy)phenyl)-2H,4H,5H,6H, 7H-pyrazolo[3,4-b]pyridin-6-one]	–	≤ 0.316	0.01 to 0.1
COc1cc(C2CC(=O)Nc3n[nH]cc32)ccc1COc1ccc(C(F)F)cc1C(F)(F)F (stereo not shown) [Example 115, 4-(4-{[4-(difluoromethyl)-2-(trifluoromethyl)phenoxy]methyl}-3-methoxyphenyl)-2H,4H,5H,6H,7H-pyrazolo[3,4-b]pyridin-6-one]	≥ 8	≤ 0.316	–
COc1cc(C2CC(=O)Nc3n[nH]cc32)ccc1COc1ccc(C#CCO)cc1C(F)(F)F (stereo not shown) [Example 119, 4-(4-{[4-(3-hydroxyprop-1-yn-1-yl)-2-(trifluoromethyl)phenoxy]methyl}-3-methoxyphenyl)-2H,4H,5H,6H,7H-pyrazolo[3,4-b]pyridin-6-one]	≥ 8	≤ 0.316	–

Now from value to compound:

mean pIC50 [1]	IC50 (full length ERRα) [µM]	IC50 [1] [µM]	Compound
≥ 8	≤ 0.316	–	COc1cc(C2CC(=O)Nc3n[nH]cc32)ccc1OCc1ccc(Br)cc1C(F)(F)F (stereo not shown) [Example 33, 4-(4-{[4-bromo-2-(trifluoromethyl)phenyl]methoxy}-3-methoxyphenyl)-2H,4H,5H,6H,7H-pyrazolo[3,4-b]pyridin-6-one]
–	≤ 0.316	0.1 to 1	COc1cc(C2CC(=O)Nc3n[nH]cc32)ccc1OCc1ccc(NC(=O)CN)cc1C(F)(F)F (stereo not shown) [Example 140, 2-amino-N-{4-[(2-methoxy-4-{6-oxo-2H,4H,5H,6H, 7H-pyrazolo[3,4-b]pyridin-4-yl}phenoxy)methyl]-3-(trifluoromethyl)phenyl}acetamide]
≥ 8	≤ 0.316	–	C=CCc1ccc(COc2ccc(C3CC(=O)Nc4n[nH]cc43)cc2OC)c(C(F)(F)F)c1 (stereo not shown) [Example 142, 4-(3-methoxy-4-{[4-(prop-2-en-1-yl)-2-(trifluoromethyl)phenyl]methoxy}phenyl)-2H,4H,5H,6H,7H-pyrazolo[3,4-b]pyridin-6-one]
≥ 8	≤ 0.316	–	COc1cc(C2CC(=O)Nc3n[nH]cc32)ccc1OCc1ccc(CC(O)CO)cc1C(F)(F)F (stereo not shown) [Example 143, 4-(4-{[4-(2,3-dihydroxypropyl)-2-(trifluoromethyl)phenyl]methoxy}-3-methoxyphenyl)-2H,4H,5H,6H, 7H-pyrazolo[3,4-b]pyridin-6-one]
≥ 8	≤ 0.316	–	CCc1ccc(COc2ccc(C3CC(=O)Nc4n[nH]cc43)cc2OC)c(C(F)(F)F)c1 (stereo not shown) [Example 144, 4-(4-{[4-ethyl-2-(trifluoromethyl)phenyl]methoxy}-3-methoxyphenyl)-2H,4H,5H,6H, 7H-pyrazolo[3,4-b]pyridin-6-one]
≥ 8	≤ 0.316	–	COc1cc(C2CC(=O)Nc3n[nH]cc32)ccc1OCc1ccc(C2CC2)cc1C(F)(F)F (stereo not shown) [Example 145, 4-(4-{[4-cyclopropyl-2-(trifluoromethyl)phenyl]methoxy}-3-methoxyphenyl)-2H,4H,5H,6H, 7H-pyrazolo[3,4-b]pyridin-6-one]
≥ 8	≤ 0.316	–	COc1cc(C2CC(=O)Nc3n[nH]cc32)ccc1OCc1ccc(C#CCO)cc1C(F)(F)F (stereo not shown) [Example 146, 4-(4-{[4-(3-hydroxyprop-1-yn-1-yl)-2-(trifluoromethyl)phenyl]methoxy}-3-methoxyphenyl)-2H,4H,5H,6H, 7H-pyrazolo[3,4-b]pyridin-6-one]
–	≤ 0.316	0.1 to 1	COc1cc(C2CC(=O)Nc3n[nH]cc32)ccc1OCc1ccc(CC#N)cc1C(F)(F)F (stereo not shown) [Example 147, 2-[4-(2-methoxy-4-{6-oxo-2H,4H,5H,6H, 7H-pyrazolo[3,4-b]pyridin-4-yl}phenoxymethyl)-3-(trifluoromethyl)phenyl]acetonitrile]
